65 compounds from ChEMBL document CHEMBL1212868, “Synergistic experimental/computational studies on arylazoenamine derivatives that target the bovine viral diarrhea virus RNA-dependent RNA polymerase” (Bioorg Med Chem, 2010) can be followed below.

Molecules are shown by their SMILES.

Usually CC50 stands for the concentration giving 50% cytotoxicity. A lower CC50 goes with greater toxicity to the cells. Broadly, the EC50 is the concentration at which the effect is half-maximal. A word on the IC50: it is the midpoint of a concentration-inhibition curve. A lower IC50 goes with inhibition by little substance.

A short description of series [1]: Cytotoxicity against […] cells by MTT assay. In kind it is cell-based. On the technique in general: Formazan colour is commonly taken as a measure of viable cells.
Series [2] deals with Bovine viral diarrhea virus 1. Briefly: Antiviral activity against BVDV bearing mutant RdRp infected in […] cells assessed as inhibition of virus-induced cytopathogenicity by MTT assay. The following applies: Bovine viral diarrhea virus isolates and strains. The format is functional, organism-based. A general note: Damage to the host cells serves as the signal in cytopathic effect assays.

The subject of series [3] is Bovine viral diarrhea virus 1. Put plainly: Antiviral activity against BVDV infected in […] cells assessed as inhibition of virus-induced cytopathogenicity by MTT assay. The format is functional, organism-based. Particulars: Bovine viral diarrhea virus isolates and strains.
Series [4] is described as follows: Inhibition of BVDV RNA dependent NS5B polymerase. Set-up: species or system Bovine viral diarrhea virus 1.
Series [5] in a line: Selectivity index, ratio of CC50 for […] cells to EC50 for BVDV.
Series [6] in a line: Inhibition of hepatitis C virus RNA dependent NS5B polymerase. Set-up: species or system Hepacivirus hominis.

Compound `CC(=O)Nc1ccc(-c2nc3cc([N+](=O)[O-])ccc3[nH]2)cc1` came in with a CC50 in series [1] of more than 100 µM. The EC50 is more than 100 µM in series [2] and 0.8 µM in series [3]. For `CC(=O)Nc1ccc(-c2nc3cc(Cl)c(Cl)cc3[nH]2)cc1`, the CC50 in series [1] came to 58 µM. Besides, the results for the half-maximal effective concentration (EC50) in series [2] and in series [3] were more than 100 µM and 1 µM, respectively. As to `Brc1cccc(/N=N/C2=C3CCCCN3CCC2)c1`, in series [3], the EC50 was more than 10 µM.

In the case of `Brc1ccc(/N=N/C2=C3CCCCN3CCC2)cc1`, the EC50 in series [3] is more than 59 µM. Same read-out and setting: to `FC(F)(F)c1cccc(/N=N/C2=C3CCCCN3CCC2)c1` belongs more than 8 µM; to `O=[N+]([O-])c1cccc(/N=N/C2=C3CCCCN3CCC2)c1`, more than 100 µM.

Turning to `O=[N+]([O-])c1ccc(/N=N/C2=C3CCCCN3CCC2)cc1`, in series [3], the EC50 came to 86 µM. As for `Clc1ccc(/N=N/C2=C3CCCCN3CCC2)cc1Cl`, the concentration for a half-maximal effect (EC50) in series [3] is more than 30 µM.

Consider `FC(F)(F)c1cc(/N=N/C2=C3CCCCN3CCC2)cc(C(F)(F)F)c1`, for which, in series [3], the 50% effective concentration (EC50) was more than 31 µM. Take `Fc1ccc(/N=N/C2=C3CCCCN3CCC2)cc1C(F)(F)F`: in series [3], the EC50 was more than 100 µM. The same measure, in the same setting: to `FC(F)(F)c1cc(/N=N/C2=C3CCCCN3CCC2)ccc1Cl` belongs more than 35 µM; to `FC(F)(F)c1cc(/N=N/C2=C3CCCCN3CCC2)ccc1Br`, 61 µM; to `O=[N+]([O-])c1cc(/N=N/C2=C3CCCCN3CCC2)ccc1Cl`, more than 18 µM.

As for `c1ccc2c(/N=N/C3=C4CCCCN4CCC3)cccc2c1`, in series [3], the 50% effective concentration (EC50) worked out at 6 µM. Still for that read-out and setting: the same measure for `Fc1ccc(/N=N/C2=C3CCCCN3CCC2)cc1`: more than 56 µM.

Regarding `Clc1ccccc1/N=N/C1=C2CCCCN2CCC1`, in series [3], the EC50 is more than 100 µM.

In the case of `Clc1cccc(/N=N/C2=C3CCCCN3CCC2)c1`, the EC50 in series [3] is more than 20 µM.

Take `Clc1ccc(/N=N/C2=C3CCCCN3CCC2)cc1`: in series [3], the EC50 is more than 60 µM. As to `Clc1ccc(/N=N/C2=C3CCCN3CCC2)cc1`, in series [3], the half-maximal effective concentration (EC50) was more than 30 µM.

Regarding `O=[N+]([O-])c1cccc(/N=N/C2=C3CCCN3CCC2)c1`, the 50% effective concentration (EC50) in series [3] is more than 68 µM. As to `Clc1ccc(/N=N/C2=C3CCCN3CCC2)cc1Cl`, the concentration giving a half-maximal response (EC50) in series [3] was more than 67 µM. The same measure, in the same setting: the same measure for `FC(F)(F)c1cc(/N=N/C2=C3CCCN3CCC2)ccc1Cl`: more than 21 µM; for `c1ccc2c(/N=N/C3=C4CCCN4CCC3)cccc2c1`: 3.5 µM. Same read-out and setting: the same measure for `c1ccc2c(/N=N/C3=C4CCCN4CCC3)nncc2c1`: more than 100 µM; for `CN1CCC/C1=C\N=N\c1ccc([N+](=O)[O-])cc1`: 19 µM; for `Clc1ccc(/N=N/C=C2\CCCN2Cc2ccccc2)cc1Cl`: more than 79 µM. On to `Nc1ccc(-c2nc3cc([N+](=O)[O-])ccc3[nH]2)cc1`, for which the midpoint of cytotoxicity in series [1], the CC50, lay at 79 µM. Further, the EC50 was more than 79 µM in series [2] and 1.5 µM in series [3]. As for `COc1ccc(/N=N/C=C2\CCCN2C)cc1`, in series [3], the 50% effective concentration (EC50) was found to be 18 µM. As for `CN1CCC/C1=C\N=N\c1ccc(Cl)c(Cl)c1`, the concentration giving a half-maximal response (EC50) in series [3] worked out at 16 µM. In series [1], `CN1C=C(/N=N/c2cccc([N+](=O)[O-])c2)CCC1` returned a CC50 of more than 100 µM. For the same compound, the half-maximal inhibitory concentration (IC50) in series [4] worked out at 32 µM; in series [6] it was 30 µM. The “Ratio CC50/EC50” value in series [5] was found to be 125. In addition, in series [3], the EC50 came to 0.8 µM. Turning to `CN1C=C(/N=N/c2ccccc2)CCC1`, the 50% effective concentration (EC50) in series [3] was more than 100 µM. The same measure, in the same setting: the same measure for `CN1C=C(/N=N/c2ccccc2Cl)CCC1`: 100 µM. Still for that read-out and setting: to `CN1CCC/C1=C\N=N\c1ccc(F)cc1` belongs 18 µM; to `CN1C=C(/N=N/c2c(F)c(F)c(F)c(F)c2F)CCC1`, more than 100 µM. The same measure, in the same setting: to `Cc1ccc(/N=N/C2=CN(C)CCC2)cc1` belongs more than 100 µM. As to `CN1CCC/C1=C\N=N\c1ccc(Cl)cc1`, in series [3], the half-maximal effective concentration (EC50) was 21 µM.

As for `CN1C=C(/N=N/c2ccc(Cl)c(Cl)c2)CCC1`, in series [3], the half-maximal effective concentration (EC50) is 7 µM. On the same count and under the same terms, to `CN1CCC/C1=C\N=N\c1cccc(Br)c1` belongs 9 µM; to `CN1CCC/C1=C\N=N\c1ccc(Br)cc1`, 11 µM; to `CN1CCC/C1=C\N=N\c1cccc(C(F)(F)F)c1`, 21 µM.

Turning to `Clc1ccc(/N=N/C=C2\CCCN2Cc2ccccc2)cc1`, the EC50 in series [3] was more than 18 µM. Consider `Cc1ccc(/N=N/C=C2\CCCN2Cc2ccccc2)cc1`, for which the EC50 in series [3] is more than 22 µM. Same read-out and setting: to `CN1C=C(/N=N/c2cccc(C(F)(F)F)c2)CCC1` belongs 90 µM; to `CN1C=C(/N=N/c2cccc(Cl)c2)CCC1`, 12 µM; to `CN1C=C(/N=N/c2ccc(Cl)cc2)CCC1`, more than 58 µM.

Consider `CN1C=C(/N=N/c2cccc3ccccc23)CCC1`, for which, in series [1], the cytotoxic concentration (CC50) is more than 100 µM. In addition, the 50% effective concentration (EC50) was more than 100 µM in series [2] and 5 µM in series [3]. Moreover, the figures for the IC50 in series [4] and in series [6] were 28 µM and 55 µM, respectively. Turning to `CN1CCC/C1=C\N=N\c1c(F)c(F)c(F)c(F)c1F`, the EC50 in series [3] was more than 100 µM. On the same count and under the same terms, the same measure for `CN1C=C(/N=N/c2cccc(Br)c2)CCC1`: 19 µM; for `CN1C=C(/N=N/c2ccc(Br)cc2)CCC1`: 60 µM; for `CN1CCC/C1=C\N=N\c1ccccc1`: 10 µM. On the same count and under the same terms, to `CN1C=C(/N=N/c2ccc(F)c(C(F)(F)F)c2)CCC1` belongs more than 100 µM; to `CN1C=C(/N=N/c2ccc(F)cc2)CCC1`, more than 48 µM; to `CN1C=C(/N=N/c2ccc(Cl)c(C(F)(F)F)c2)CCC1`, more than 28 µM.

For the compound `CN1C=C(/N=N/c2ccc(Cl)c([N+](=O)[O-])c2)CCC1`, the half-maximal effective concentration (EC50) in series [3] was more than 61 µM. Turning to `CN1CCC/C1=C\N=N\c1ccc(Br)c(C(F)(F)F)c1`, the half-maximal effective concentration (EC50) in series [3] came to 46 µM.

Turning to `CN1CCC/C1=C\N=N\c1cccc([N+](=O)[O-])c1`, the EC50 in series [3] was 5.5 µM.

As for `Cc1ccc(/N=N/C=C2\CCCN2C)cc1`, in series [3], the EC50 is 20 µM. Still for that read-out and setting: the same measure for `CN1CCC/C1=C\N=N\c1cc(C(F)(F)F)cc(C(F)(F)F)c1`: more than 36 µM; for `CN1C=C(/N=N/c2cc(C(F)(F)F)cc(C(F)(F)F)c2)CCC1`: more than 64 µM; for `CN1C=C(/N=N/c2ccc([N+](=O)[O-])cc2)CCC1`: 11 µM. Same read-out and setting: to `CN1C=C(/N=N/c2ccc(Br)c(C(F)(F)F)c2)CCC1` belongs 40 µM; to `FC(F)(F)c1cc(/N=N/C=C2\CCCN2Cc2ccccc2)ccc1Cl`, more than 14 µM. Still for that read-out and setting: to `C(/N=N/c1ccccc1)=C1/CCCN1Cc1ccccc1` belongs more than 74 µM; to `CN1CCC/C1=C\N=N\c1ccc(F)c(C(F)(F)F)c1`, 100 µM. For the compound `C[C@@]1(O)[C@H](O)[C@@H](CO)O[C@H]1n1cnc2c(=O)[nH]c(N)nc21` [2'-B-METHYL-GUANOSINE], in series [3], the EC50 amounted to 1.7 µM.
